Assay [1] deals with T1, CDK2/Cyclin E (Homo sapiens, UniProt P24941).
T1 construct: His; made in house; host or cells: Sf9 insect cells (baculovirus)
Nature of the assay: CDK2/cyclin E kinase assay (GST-Rb phosphorylation).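 Further: enzyme source: His-tagged CDK2/cyclin E complex co-expressed recombinantly in Sf9 insect cells using baculovirus constructs.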 Type of assay: biochemical.

In assay [2] the target is CDK9/cyclin T1 (Homo sapiens, UniProt P50750). The experiment in a line: CDK9 assay (CTD peptide substrate). It is filed as biochemical. On the procedure:
CTD peptide substrate (biotinyl-Ahx-(Tyr-Ser-Pro-Thr-Ser-Pro-Ser)4-NH2; 1-2 mg/mL) and recombinant human CDK7/cyclin H, CDK9/cyclin T1, or CDK9/cyclin K (0.5-2 μg) were incubated for 45 min at 30° C. in the presence of varying amounts of test compound in 20 mM MOPS pH 7.2, 25 mM β-glycerophosphate, 5 mM EGTA, 1 mM DTT, 1 mM sodium vanadate, 15 mM MgCl2, and 100 μM ATP (containing a trace amount of ^32PγATP) in a total volume of 25 μL in a 96-well microtiter plate. The reaction was stopped by placing the plate on ice for 2 min. Avidin (50 μg) was added to each well, and the plate was incubated at room temp for 30 min. The samples were transferred to a 96-well P81 filter plate, and washed (4×200 μL per well) with 75 mM phosphoric acid. Microscint 40 scintillation liquid (50 μL) was added to each well, and the amount of ^32P incorporation for each sample was measured using a Packard Topcount microplate scintillation counter.

Assay [3] deals with CDK1/Cyclin B (Homo sapiens, UniProt P06493). Nature of the assay: CDK1/cyclin B kinase assay (GST-Rb phosphorylation).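 Further: Enzyme: His-tagged CDK1/Cyclin B co-expressed in baculovirus-infected Sf9 insect cells, purified via metal-chelate chromatography.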
Sequence of CDK1/Cyclin B (P06493 whole entry, species assumed): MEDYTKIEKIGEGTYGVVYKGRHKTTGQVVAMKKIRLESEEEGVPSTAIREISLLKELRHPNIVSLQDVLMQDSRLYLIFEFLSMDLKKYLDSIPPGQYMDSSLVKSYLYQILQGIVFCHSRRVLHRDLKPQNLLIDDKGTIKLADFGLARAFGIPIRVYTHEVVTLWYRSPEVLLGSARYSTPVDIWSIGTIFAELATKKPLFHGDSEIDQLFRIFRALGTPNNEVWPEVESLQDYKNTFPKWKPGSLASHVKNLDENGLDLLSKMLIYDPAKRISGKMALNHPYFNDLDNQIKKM
Sequence of CDK1/Cyclin B (P14635 whole entry partner, species assumed): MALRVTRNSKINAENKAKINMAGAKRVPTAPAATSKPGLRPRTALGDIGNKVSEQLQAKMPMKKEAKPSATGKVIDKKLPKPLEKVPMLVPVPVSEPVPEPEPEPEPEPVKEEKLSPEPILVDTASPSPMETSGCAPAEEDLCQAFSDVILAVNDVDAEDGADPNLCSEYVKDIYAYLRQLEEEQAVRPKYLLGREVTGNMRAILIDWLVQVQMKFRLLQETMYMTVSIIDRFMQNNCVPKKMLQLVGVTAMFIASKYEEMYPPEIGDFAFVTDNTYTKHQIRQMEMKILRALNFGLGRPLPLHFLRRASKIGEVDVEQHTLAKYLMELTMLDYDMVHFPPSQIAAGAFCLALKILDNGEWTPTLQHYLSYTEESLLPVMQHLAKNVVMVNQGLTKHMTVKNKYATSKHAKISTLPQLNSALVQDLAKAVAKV
Experimental: His-tagged CDK2/Cyclin E and CDK1/Cyclin B may be co-expressed and PKCα singularly expressed in Sf 9 insect cells infected with the appropriate baculovirus constructs. The cells are harvested two days after infection by low speed centrifugation and the proteins purified from the insect cell pellets by Metal-chelate chromatography. Briefly, the insect cell pellet is lysed in Buffer A (10 mM Tris-HCl, pH 8.0, 150 mM NaCl, 0.02% NP40 and 5 mM β-marcaptoethanol, 1 mM NaF. 1 mM Na3VO4 and Protease Inhibitors Coctail (Sigma) containing AEBSF, pepstatin A, E 64, bestatin, leupeptin) by sonication. The soluble fraction is cleared by centrifugation and loaded onto Ni-NTA-Agarose (Quiagen). Non bound proteins were washed off with 300 mM NaCl, 5-15 mM Imidazole in Buffer A and the bound proteins eluted with 250 mM Imidazole in Buffer A. The purified proteins are extensively dialyzed against Storage buffer (20 mM HEPES pH 7.4, 50 mM NaCl, 2 mM DTT, 1 mM EDTA, 1 mM EGTA, 0.02% NP40, 10% v/v Glycerol) aliquoted and stored at −70° C.
Where [4] appears, read: Table 3, read-out: Average IC50 CDK2 cyclin E1.
Where [5] appears, read: Table 3, read-out: Average IC50 CDK9 cyclin T1.
Where [6] appears, read: Table 4, read-out: Kinase Inhibition IC50 CDK9-cyclin T1.

Data on 36 compounds can be found in US20050288307A1, “Anti-viral compounds” (priority 2002, published 2005).

pIC50: −log10 of the molar value. Where two headings read alike, the source gives them in different places.

Sequence of CDK9/cyclin T1 (P50750 whole entry): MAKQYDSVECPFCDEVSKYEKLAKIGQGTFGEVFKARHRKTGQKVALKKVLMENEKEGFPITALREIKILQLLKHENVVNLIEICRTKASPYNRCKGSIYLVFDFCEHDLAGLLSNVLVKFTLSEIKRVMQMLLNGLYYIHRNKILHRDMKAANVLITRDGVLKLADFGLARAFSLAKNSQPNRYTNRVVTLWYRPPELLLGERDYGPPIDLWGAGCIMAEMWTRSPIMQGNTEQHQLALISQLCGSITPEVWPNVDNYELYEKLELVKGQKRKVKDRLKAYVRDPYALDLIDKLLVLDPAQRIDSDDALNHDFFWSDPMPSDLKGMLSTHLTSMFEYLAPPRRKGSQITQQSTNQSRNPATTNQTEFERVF
Sequence of CDK9/cyclin T1 (O60563 whole entry partner): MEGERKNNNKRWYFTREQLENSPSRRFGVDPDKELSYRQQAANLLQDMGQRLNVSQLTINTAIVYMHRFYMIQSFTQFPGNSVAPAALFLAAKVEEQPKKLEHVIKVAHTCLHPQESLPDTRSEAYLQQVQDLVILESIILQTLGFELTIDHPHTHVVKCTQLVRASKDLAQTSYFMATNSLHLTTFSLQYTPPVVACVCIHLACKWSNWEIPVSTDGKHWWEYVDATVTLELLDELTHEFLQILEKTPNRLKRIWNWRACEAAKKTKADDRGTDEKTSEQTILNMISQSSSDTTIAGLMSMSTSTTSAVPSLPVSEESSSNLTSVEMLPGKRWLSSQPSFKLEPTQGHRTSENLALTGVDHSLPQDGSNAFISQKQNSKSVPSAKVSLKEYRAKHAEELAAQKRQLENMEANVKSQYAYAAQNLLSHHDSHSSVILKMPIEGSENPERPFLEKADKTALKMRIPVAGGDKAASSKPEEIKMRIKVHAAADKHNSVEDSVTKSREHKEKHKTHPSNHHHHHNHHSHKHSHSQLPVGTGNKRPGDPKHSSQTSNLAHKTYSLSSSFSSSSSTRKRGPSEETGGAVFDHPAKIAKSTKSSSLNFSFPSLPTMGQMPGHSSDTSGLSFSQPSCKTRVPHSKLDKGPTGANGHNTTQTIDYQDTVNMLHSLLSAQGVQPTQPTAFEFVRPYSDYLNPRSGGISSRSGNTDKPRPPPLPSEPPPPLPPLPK

With `Cc1nc(C)c(-c2cc(Br)nc(Nc3cccc([N+](=O)[O-])c3)n2)s1` [Compound 41, [4-Bromo-6-(2,4-dimethyl-thiazol-5-yl)-pyrimidin-2-yl]-(3-nitro-phenyl)-amine], the pIC50 (commonly the IC50 on a negative log10 scale, so that one unit is a factor of ten) in assay [1] (setting [4]) was 6.24.

Turning to `CNc1nc(C)c(-c2ccnc(Nc3cccc([N+](=O)[O-])c3)n2)s1` [Compound 61, [4-(4-Methyl-2-methylamino-thiazol-5-yl)-pyrimidin-2-yl]-(3-nitro-phenyl)-amine], the pIC50 in assay [1] (setting [4]) was 5.68; in assay [2] (setting [5]) it was 6.72.

Regarding `Cc1nc(NCCO)sc1-c1ccnc(Nc2cccc([N+](=O)[O-])c2)n1` [Compound 144, 2-{4-Methyl-5-[2-(3-nitro-phenylamino)-pyrimidin-4-yl]-thiazol-2-ylamino}-ethanol], the pIC50 in assay [2] (setting [5]) is 8.40.

As to `Cc1nc(N)sc1-c1ccnc(Nc2ccc(N(C)C)cc2)n1` [Compound 106, N-[4-(2-Amino-4-methyl-thiazol-5-yl)-pyrimidin-2-yl]-N′,N′-dimethyl-benzene-1,4-diamine], the pIC50 in assay [2] (setting [5]) was 6.62.

Consider `C=CCNc1nc(C)c(-c2ccnc(Nc3cccc([N+](=O)[O-])c3)n2)s1` [Compound 69, [4-(2-Allylamino-4-methyl-thiazol-5-yl)-pyrimidin-2-yl]-(3-nitro-phenyl)-amine], for which the pIC50 in assay [2] (setting [5]) is 7.17.

For `COC(=O)c1cc(Nc2nccc(-c3sc(C)nc3C)n2)ccc1Cl` [Compound 83, 2-Chloro-5-[4-(2,4-dimethyl-thiazol-5-yl)-pyrimidin-2-ylamino]-benzoic acid methyl ester], the pIC50 in assay [1] (setting [4]) was 5.70.

`COc1ccc(Nc2nccc(-c3sc(C)nc3C)n2)c(O)c1` [Compound 79, 2-[4-(2,4-Dimethyl-thiazol-5-yl)-pyrimidin-2-ylamino]-5-methoxy-phenol]: in assay [1] (setting [4]), the pIC50 is 5.92.

Regarding `CNc1nc(C)c(-c2ccnc(Nc3cccc(Br)c3)n2)s1` [Compound 68, (3-Bromo-phenyl)-[4-(4-methyl-2-methylamino-thiazol-5-yl)-pyrimidin-2-yl]-amine], the pIC50 was 4.57 in assay [1] (setting [4]) and 8.00 in assay [2] (setting [5]).

For `Cc1nc(C)c(-c2ccnc(Nc3cccc(F)c3)n2)s1` [Compound 22, [4-(2,4-Dimethyl-thiazol-5-yl)-pyrimidin-2-yl]-(3-fluoro-phenyl)-amine], the pIC50 in assay [1] (setting [4]) is 6.66.

Regarding `CCNc1nc(C)c(-c2ccnc(Nc3ccc(F)cc3)n2)s1` [Compound 60, [4-(2-Ethylamino-4-methyl-thiazol-5-yl)-pyrimidin-2-yl]-(4-fluoro-phenyl)-amine], the pIC50 in assay [1] (setting [4]) was 6.29.

For `COc1ccccc1Nc1nccc(-c2sc(C)nc2C)n1` [Compound 24, [4-(2,4-Dimethyl-thiazol-5-yl)-pyrimidin-2-yl]-(2-methoxy-phenyl)-amine], the pIC50 in assay [1] (setting [4]) was 5.20.

`CNc1nc(C)c(-c2ccnc(Nc3ccc(I)c([N+](=O)[O-])c3)n2)s1` [Compound 132, (4-Iodo-3-nitro-phenyl)-[4-(4-methyl-2-methylamino-thiazol-5-yl)-pyrimidin-2-yl]-amine]: the pIC50 in assay [2] (setting [5]) was 6.96.

Turning to `CNc1nc(C)c(-c2ccnc(Nc3ccc(C(F)(F)F)cc3)n2)s1` [Compound 74, [4-(4-Methyl-2-methylamino-thiazol-5-yl)-pyrimidin-2-yl]-(4-trifluoromethyl-phenyl)-amine], the pIC50 in assay [1] (setting [4]) is 5.72.

Consider `Cc1nc(C)c(-c2ccnc(Nc3cccc(I)c3)n2)s1` [Compound 20, [4-(2,4-Dimethyl-thiazol-5-yl)-pyrimidin-2-yl]-(3-iodo-phenyl)-amine], for which the pIC50 in assay [1] (setting [4]) is 5.17.

The compound `Cc1nc(C)c(-c2ccnc(Nc3ccccc3F)n2)s1` [Compound 7, [4-(2,4-Dimethyl-thiazol-5-yl)-pyrimidin-2-yl]-(2-fluoro-phenyl)-amine] gave a pIC50 in assay [3] of 4.92.

`Cc1nc(C)c(-c2ccnc(Nc3ccc(C(=O)O)cc3)n2)s1` [Compound 40, 4-[4-(2,4-Dimethyl-thiazol-5-yl)-pyrimidin-2-ylamino]-benzoic acid]: the pIC50 in assay [1] (setting [4]) is 6.13.

With `C=CCNc1nc(C)c(-c2ccnc(Nc3ccc(F)cc3)n2)s1` [Compound 67, [4-(2-Allylamino-4-methyl-thiazol-5-yl)-pyrimidin-2-yl]-(4-fluoro-phenyl)-amine], the pIC50 in assay [1] (setting [4]) is 5.89.

For `CNc1nc(C)c(-c2ccnc(Nc3cccc(F)c3)n2)s1` [Compound 87, (3-Fluoro-phenyl)-[4-(4-methyl-2-methylamino-thiazol-5-yl)-pyrimidin-2-yl]-amine], the pIC50 in assay [1] (setting [4]) is 5.89; in assay [2] (setting [5]), 7.20.

For `Cc1c(-c2ccnc(Nc3ccc(F)cc3)n2)sc(=O)n1C` [Compound 155, 5-[2-(4-Fluoro-phenylamino)-pyrimidin-4-yl]-3,4-dimethyl-3H-thiazol-2-one], the negative-log IC50 (pIC50) in assay [2] (setting [6]) was 8.57.

As to `COc1cccc(Nc2nccc(-c3sc(C)nc3C)n2)c1` [Compound 25, [4-(2,4-Dimethyl-thiazol-5-yl)-pyrimidin-2-yl]-(3-methoxy-phenyl)-amine], the pIC50 in assay [1] (setting [4]) is 6.36.

For the compound `Cc1nc(C)c(-c2ccnc(Nc3cccc(CO)c3)n2)s1` [Compound 100, {3-[4-(2,4-Dimethyl-thiazol-5-yl)-pyrimidin-2-ylamino]-phenyl}-methanol], in assay [1] (setting [4]), the pIC50 is 6.72.

In the case of `COc1ccc(Nc2nccc(-c3sc(N)nc3C)n2)cc1` [Compound 111, [4-(2-Amino-4-methyl-thiazol-5-yl)-pyrimidin-2-yl]-(4-methoxy-phenyl)-amine], the pIC50 in assay [1] (setting [4]) was 6.17.

On to `Cc1nc(C)c(-c2ccnc(Nc3cc(F)cc(F)c3)n2)s1` [Compound 10, (3,5-Difluoro-phenyl)-[4-(2,4-dimethyl-thiazol-5-yl)-pyrimidin-2-yl]-amine], for which the pIC50 in assay [1] (setting [4]) is 5.23; in assay [3], 5.26.

With `Cc1nc(C)c(-c2ccnc(Nc3ccc(Cl)cc3Cl)n2)s1` [Compound 12, (2,4-Dichloro-phenyl)-[4-(2,4-dimethyl-thiazol-5-yl)-pyrimidin-2-yl]-amine], the pIC50 in assay [1] (setting [4]) is 5.00.

For the compound `O=[N+]([O-])c1ccc(Nc2ncc(-c3ccnc(Nc4ccc(O)cc4)n3)s2)cc1` [Compound 95, 4-{4-[2-(4-Nitro-phenylamino)-thiazol-5-yl]-pyrimidin-2-ylamino}-phenol], the pIC50 in assay [1] (setting [4]) is 6.92.

As to `CNc1nc(C)c(-c2ccnc(Nc3ccc(O)c([N+](=O)[O-])c3)n2)s1` [Compound 58, 4-[4-(4-Methyl-2-methylamino-thiazol-5-yl)-pyrimidin-2-ylamino]-2-nitro-phenol], the figures for the pIC50 in assay [1] (setting [4]) and in assay [2] (setting [5]) were 5.82 and 7.21, respectively.

Take `Cc1nc(C)c(-c2ccnc(Nc3ccc(Cl)cc3)n2)s1` [Compound 2, (4-Chloro-phenyl)-[4-(2,4-dimethyl-thiazol-5-yl)-pyrimidin-2-yl]-amine]: the pIC50 in assay [1] was 5.29; in assay [3] it was 4.85.

Take `Cc1cc(Nc2nccc(-c3sc(=O)n(C)c3C)n2)ccc1F` [Compound 162, 5-[2-(4-Fluoro-3-methyl-phenylamino)-pyrimidin-4-yl]-3,4-dimethyl-3H-thiazol-2-one]: the pIC50 in assay [2] (setting [6]) was 7.10.

Regarding `Cc1nc(C)c(-c2ccnc(Nc3ccc(F)c(F)c3)n2)s1` [Compound 23, (3,4-Difluoro-phenyl)-[4-(2,4-dimethyl-thiazol-5-yl)-pyrimidin-2-yl]-amine], the negative-log IC50 (pIC50) in assay [2] (setting [5]) is 5.51.

On to `Cc1c(-c2ccnc(Nc3ccc(O)cc3)n2)sc(=O)n1C` [Compound 152, 5-[2-(4-Hydroxy-phenylamino)-pyrimidin-4-yl]-3,4-dimethyl-3H-thiazol-2-one], for which, in assay [2] (setting [6]), the pIC50 was 8.64.

Consider `Cc1nc(NCCO)sc1-c1ccnc(Nc2ccc(F)cc2)n1` [Compound 145, 2-{5-[2-(4-Fluoro-phenylamino)-pyrimidin-4-yl]-4-methyl-thiazol-2-ylamino}-ethanol], for which the pIC50 in assay [2] (setting [5]) is 8.10.

Consider `Cc1nc(C)c(-c2ccnc(Nc3cc(Cl)cc(Cl)c3)n2)s1` [Compound 11, (3,5-Dichloro-phenyl)-[4-(2,4-dimethyl-thiazol-5-yl)-pyrimidin-2-yl]-amine], for which the values for the pIC50 in assay [1] (setting [4]) and in assay [3] were 5.00 and 4.70, respectively.

On to `CNc1nc(C)c(-c2ccnc(Nc3ccc(OC)cc3)n2)s1` [Compound 93, (4-Methoxy-phenyl)-[4-(4-methyl-2-methylamino-thiazol-5-yl)-pyrimidin-2-yl]-amine], for which the pIC50 in assay [1] (setting [4]) was 9.00.

Consider `Cc1nc(N)sc1-c1ccnc(Nc2cccc(Br)c2)n1` [Compound 119, [4-(2-Amino-4-methyl-thiazol-5-yl)-pyrimidin-2-yl]-(3-bromo-phenyl)-amine], for which the pIC50 in assay [2] (setting [5]) is 6.55.

Regarding `CNc1nc(C)c(-c2ccnc(Nc3ccc(N(C)C)cc3)n2)s1` [Compound 131, N,N-Dimethyl-N′-[4-(4-methyl-2-methylamino-thiazol-5-yl)-pyrimidin-2-yl]-benzene-1,4-diamine], in assay [2] (setting [5]), the pIC50 is 6.77.

As to `CNc1nc(C)c(-c2ccnc(Nc3cccc(OC)c3)n2)s1` [Compound 73, (3-Methoxy-phenyl)-[4-(4-methyl-2-methylamino-thiazol-5-yl)-pyrimidin-2-yl]-amine], the pIC50 in assay [1] (setting [4]) is 6.51; in assay [2] (setting [5]) it was 6.32.
